Literature values in patent US6310180A, “Method for synthesis of proteins” (Vanderbilt University, priority 1995, dated 2001).
pKi: −log10 of the molar value. Square brackets hold non-standard residues; d marks the D form. Peptide text beside a SMILES is read from it. Sta = CC(C)C[C@H](N)[C@@H](O)CC(=O)O

Target: HIV-1 protease (Human immunodeficiency virus type 1 group M subtype B, UniProt P03369)
Conditions: aspartic protease inhibitor "has been shown to inhibit the HIV-1 protease"; added to the ligation solution to prevent autoproteolysis

CC(=O)N[C@H](C(=O)N[C@H](C(=O)N[C@@H](CC(C)C)[C@@H](O)CC(=O)N[C@@H](C)C(=O)N[C@@H](CC(C)C)[C@@H](O)CC(=O)O)C(C)C)C(C)C [acetyl-pepstatin] (Ac-VV[Sta]A[Sta]-OH)
pKi: 1.70
